Drawing on PubChem BioAssay (NCI), this text covers TGI and GI50 for 24 molecules.

Holding throughout (assay): DTP human tumour cell line panel, 48 h
Assay [1] deals with 786-0 renal.
The test system of assay [2] is SNB-75 CNS.
Assay [3] has as its system A498 renal.
Assay [4] has as its system IGROV1 ovarian.
Assay [5] concerns MOLT-4 leukemia.
Assay [6] relates to NCI-H522 lung.
In assay [7] the test system is MCF7 breast.
Assay [8] concerns K-562 leukemia.
The test system of assay [9] is HCC-2998 colon.
Assay [10] concerns EKVX NSCLC.
Assay [11] deals with UACC-62 melanoma.
The test system of assay [12] is COLO 205 colon.

Structures are written as SMILES. Values joined by “and” are separate entries in the source; they are usually repeats but may differ in a detail not shown here. Equal values may be shown once.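 Assay format: 96-well plates, 48-hour exposure. GI50: concentration for 50% inhibition of growth. The concentration for full growth arrest is given as TGI.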

Usually TGI stands for the concentration giving total growth inhibition. Regarding `COC(=O)C(=O)C(C(=O)C(=O)Nc1ccc(C)c(C)c1)c1nc2ccc([N+](=O)[O-])cc2[nH]c1=O` (centres undefined), the TGI in [1], in assay [2], in [3], in assay [4], in assay [5] and in assay [6] was more than 100 µM in each case. The TGI in assay [7], in assay [8], in [9], in [10] and in [11] was more than 100 µM throughout.

In the case of `CC(=O)N[C@@H](Cc1ccc(O)cn1)C(=O)NC1CCCCC1`, the TGI in assay [1], in assay [3], in assay [12], in assay [4], in assay [5] and in assay [6] was more than 100 µM throughout. The TGI in assay [7], in assay [8], in assay [9], in [10] and in assay [11] was more than 100 µM throughout.

On to `Cc1ccc(-n2cc(-c3ccc(Cl)cc3)c3c(=N)n(N)cnc32)cc1`, for which the TGI in assay [1] was 24.4 µM; in assay [2] it was 25.9 µM; in assay [3], 29.5 µM; in assay [12], 20.7 µM; in assay [4], 24.5 µM; in assay [6], 28 µM. Besides, the TGI in assay [7] amounted to 23.2 µM; in assay [8], 47.6 µM; in [9], 19.2 µM; in [10], 29.9 µM; in [11], 26.4 µM.

As to `CCCCCCCc1ccc(-c2nnc(N=Nc3ccc(OCCCCC)cc3)s2)s1`, the TGI in assay [1], in [2], in assay [3], in [12], in [4] and in [5] was more than 100 µM in each case. Besides, the TGI in assay [6], in assay [7], in assay [9], in assay [10] and in assay [11] was more than 100 µM throughout.

In the case of `COc1ccc(/C=N/NC(=S)Nc2cc(C)ccc2OC)cc1`, the TGI in assay [1] was 70.9 µM; in assay [2] it was more than 100 µM; in [3], more than 100 µM; in [12] it was 32.7 µM; in assay [4] it was more than 100 µM; in assay [5] it was 29.2 µM. The TGI in assay [6] is 55.9 µM; in assay [7] it was more than 100 µM; in assay [8] it was 13 µM; in assay [10], 59.5 µM; in assay [11] it was more than 100 µM.

The term GI50 denotes the concentration at which growth is held to half of that of the control. With `CCC(=C/[C@H](C)C/C=C/C(C)=C/[C@@H](C)C(=O)[C@@H](C)[C@H](O)[C@@H](C)CC)/C=C/[C@H]1CC=CC(=O)O1`, the TGI in assay [1] was 1.26 µM and 10.8 µM; in [2], less than 0.0012 µM; in assay [3] it was less than 0.0012 µM; in assay [12] it was 0.0428 µM; in assay [4] it was 3.96 µM and 10.4 µM; in assay [6], less than 0.0012 µM. Also, the TGI in [7] was 0.0033 µM; in assay [9], less than 0.0012 µM; in [10], 12 µM and 14.3 µM; in assay [11], 0.00667 µM. Moreover, in assay [5], the GI50 was less than 0.0012 µM.

On to `COc1cccc(CCCNC(=O)Cc2ccccc2CO)c1`, for which the TGI in assay [1], in assay [2], in [3], in assay [12], in assay [4] and in [5] was more than 100 µM throughout. Besides, the TGI in assay [7], in assay [8], in assay [9], in assay [10] and in assay [11] was more than 100 µM throughout.

Consider `C/C(Nc1ccc(Cl)cc1)=C1/CCOC1=O`, for which the TGI was more than 100 µM in [1]; more than 100 µM in [2]; more than 100 µM in [3]; more than 100 µM in [4]; more than 76.5 µM in assay [5]; more than 100 µM in assay [6]. Further, the TGI in assay [7], in assay [8], in [9], in assay [10] and in assay [11] was more than 100 µM in each case.

In the case of `COc1cc2c(cc1OC)C(=O)N(c1ccc(OCCN3CCCC3)cc1)C2=O`, the TGI in assay [1], in [3], in assay [12], in assay [4], in [5] and in assay [6] was more than 100 µM throughout. In addition, the TGI in assay [7], in [8], in [9], in assay [10] and in assay [11] was more than 100 µM in each case.

For the molecule `CC[C@@]12CCC(=S)N(CCSc3ccccc3)[C@@H]1c1c(n(S(=O)(=O)c3ccc(OC)cc3)c3ccccc13)CC2`, the total growth inhibition concentration (TGI) in assay [1], in assay [2], in [3], in [12], in [4] and in [5] was more than 100 µM each time. Also, the TGI in [6], in [7], in assay [8], in [10] and in [11] was more than 100 µM each time.

Turning to `COc1cccc(N=NN2CCCC2)c1`, the TGI in [1], in assay [2], in [3], in assay [12], in assay [4] and in assay [5] was more than 100 µM each time. The concentration for total growth inhibition (TGI) in [6], in [7], in assay [8], in assay [10] and in [11] was more than 100 µM each time.

For `CC(=O)O[C@H]1C(=O)[C@@]2(C)[C@H]([C@H](OC(=O)c3ccco3)[C@]3(O)C[C@H](OC(=O)[C@H](O)[C@@H](NC(=O)c4ccccc4)c4ccccc4)C(C)=C1C3(C)C)[C@]1(OC(C)=O)CO[C@@H]1C[C@@H]2O`, the TGI in assay [1] is more than 25 µM; in [2], 3.87 µM; in [3], more than 25 µM; in assay [12] it was more than 5.82 µM; in assay [4] it was more than 25 µM; in [5], more than 25 µM. Also, the TGI in [7] was more than 25 µM; in assay [9] it was 20 µM; in assay [10] it was more than 25 µM; in assay [11], more than 25 µM.

As for `C#CCOC(=O)C(=[N+]=[N-])C(=O)CC(C)C`, the TGI in assay [1], in assay [3], in assay [12], in assay [4], in [5] and in assay [7] was more than 10 µM each time. Further, the TGI in assay [8], in [9], in assay [10] and in assay [11] was more than 10 µM in each case.

As for `COc1ccc2c(c1)CC[C@@H]1C2CC[C@]2(C)C(=C=CP(=O)(O)O)CCC12` (some centres undefined), the concentration for total growth inhibition (TGI) in assay [1], in assay [2], in [3], in assay [12], in assay [4] and in assay [6] was more than 100 µM throughout. Further, the TGI in assay [7], in assay [8], in assay [9], in assay [10] and in assay [11] was more than 100 µM each time.

As to `CCOC(=O)C1C(c2ccc(OC)cc2)c2c([nH]n(-c3ccccc3)c2=O)CC1(C)O` (centres undefined), the TGI was more than 100 µM in assay [1]; more than 100 µM in assay [2]; more than 100 µM in assay [3]; 50.4 µM in [12]; more than 100 µM in assay [4]; 6.35 µM in [5]. Moreover, the TGI in assay [6], in assay [7], in [9], in assay [10] and in [11] was more than 100 µM in each case.

On to `CN(C)C(=O)Oc1ccc(C(=S)Nc2ccccc2)cc1`, for which the TGI in assay [1] was more than 100 µM; in [3], more than 100 µM; in [12], more than 100 µM; in assay [4], more than 100 µM; in assay [5], 64 µM; in assay [6], more than 100 µM. Besides, the TGI in assay [7], in [8], in assay [9], in assay [10] and in [11] was more than 100 µM in each case.

For `CC(C)=CCCC1(C)C2COC(=O)C21` (centres undefined), the TGI in [1], in [3], in assay [12], in [4], in assay [6] and in [7] was more than 100 µM in each case. In addition, the TGI in assay [8] was > 100 µM and 27.4 µM; in assay [9] it was more than 100 µM; in [10], more than 100 µM; in assay [11], more than 100 µM. Also, the GI50 in assay [12] was > 100 µM and 34.2 µM; in [6] it was > 100 µM and 47.2 µM.

Turning to `C=CCN1C(=O)CC(=O)N(NC2=NNC3(C(=O)N2)c2ccccc2-c2ccccc23)C1=S`, the TGI in assay [1] was more than 100 µM; in assay [2] it was more than 100 µM; in assay [3] it was more than 100 µM; in assay [12], 45 µM; in assay [4], more than 100 µM; in [6] it was 96.3 µM. The TGI in assay [7], in assay [8], in [9], in assay [10] and in [11] was more than 100 µM each time.

For the molecule `Cc1cc(C)n2c(nc3ccccc32)c1C#N`, the TGI in assay [1], in [3], in assay [12], in [4], in assay [5] and in [7] was more than 100 µM each time. For the same molecule, the TGI in assay [8], in assay [9], in assay [10] and in assay [11] was more than 100 µM in each case.

With `CC[C@]1(Cc2ccc(OC)c(OC)c2)C=[N+]([O-])O[C@H](OC2CCCC2(c2ccccc2)c2ccccc2)[C@@H]1OC(=O)C(C)(C)C` (some centres undefined), the TGI was 5.31 µM in assay [1]; 13.4 µM in [2]; 7.78 µM in assay [12]; 9 µM in assay [4]; more than 100 µM in [5]; 4.99 µM in assay [6]. In addition, the TGI was more than 23.3 µM in assay [7]; more than 100 µM in assay [8]; 3.71 µM in [9]; 22.3 µM in assay [10]; 17.4 µM in assay [11].

For `Clc1cc2ncn(C3CCCCO3)c2cc1Cl` (centres undefined), the TGI is more than 100 µM in assay [1]; 53.9 µM in assay [2]; more than 100 µM in assay [12]; more than 100 µM in assay [4]; more than 100 µM in assay [5]; 59.2 µM in assay [6]. Further, the TGI was more than 100 µM in assay [7]; more than 100 µM in assay [8]; more than 100 µM in assay [9]; 92.4 µM in assay [10]; more than 100 µM in assay [11].

As for `CC[C@@]1(O)C(=O)OCc2c1cc1n(c2=O)Cc2c-1nc1ccccc1c2C=Nc1ccccc1N[C@@H]1c2cc3c(cc2[C@@H](c2cc(OC)c(O)c(OC)c2)[C@H]2C(=O)OC[C@@H]21)OCO3`, the TGI in [1] was 0.339 µM; in assay [2], 5.48 µM and 0.647 µM; in assay [3], 1.79 µM and 0.68 µM; in assay [12], 24.8 µM and > 10.6 µM; in assay [4], 12.4 µM and 7.63 µM; in assay [8] it was more than 100 µM. The TGI is 24.6 µM in assay [9], more than 44.5 µM in assay [10] and 13.1 µM in assay [11]. Besides, the GI50 was 0.325 µM and 0.142 µM in assay [3]; 8.86 µM and 0.929 µM in assay [12]; 0.544 µM and 0.22 µM in assay [4]; 0.072 µM and 0.192 µM in assay [6]; less than 0.005 µM in [7]; 10.3 µM in [9]. The GI50 in assay [10] was 3.77 µM and 0.791 µM.

As for `Cc1ncc(CSC(=N)N)n1Cc1ccccc1`, the TGI is more than 100 µM in [1]; more than 100 µM in assay [3]; more than 100 µM in [12]; more than 100 µM in assay [4]; 64.4 µM in assay [6]; more than 100 µM in [7]. Further, the TGI in [8], in assay [10] and in assay [11] was more than 100 µM throughout.

As to `Cn1c(=O)c2c(nc(N/N=C3/SCC(=O)N3Cc3ccccc3)n2C)n(C)c1=O`, the total growth inhibition concentration (TGI) in assay [1], in assay [3], in assay [12], in [4], in assay [6] and in assay [7] was more than 100 µM in each case. For the same molecule, the TGI in assay [8], in assay [9], in assay [10] and in assay [11] was more than 100 µM throughout.
